The source of these data is paper PMC12428754, “Testing Strategies for Metabolite-Mediated Neurotoxicity” (International Journal of Molecular Sciences, 2025).

Structures are written as SMILES.

Experiment [1] relates to hiPSC-derived neural crest-like cells. Briefly: S9 metabolisation module followed by cMINC migration assay. Format: cell-based, human. The note with it: for EC25 migration (+NADPH): metabolite mixture generated with NADPH; for EC25 migration (+NADPH) / EC25 migration (−NADPH): nominal concentration of parent; for EC25 migration (−NADPH): metabolite mixture generated without NADPH; for fold change of potency (EC25) between NADPH-independent and -dependent metabolite mixtures: potency increased with NADPH. On the procedure:
Figure 6 The transfer of the metabolisation module to the neural crest cell migration assay (cMINC). (A) A schematic of the cMINC (circular migration of neural crest cells) assay. The cells were seeded around a central stopper to create a cell-free circular area. Migration was initiated 24 h after seeding by removing the stopper. This is defined as the day of migration (DoM) 0. On DoM 1, the cells were exposed to toxicants. After 24 h of exposure, both cell migration and viability were quantified, using automated high-content imaging. (B) Compatibility of the metabolisation module (preincubation with 500 µg/mL S9 at 37 °C for 2 h) with the cMINC assay: The setup was as described in Figure 4 and as exemplified in Figure 5A. No compound was added (solvent control). The S9 mixture (at 500 µg/mL ± NADPH) was added to the normal cell culture medium of the cMINC assay (so that the addition was 10% of the total volume). Data are from three independent experiments. (C,D) The concentration-dependent effects on migration were evaluated for metabolite mixtures generated from bromethalin (C) or chlorfenapyr (D). […] The arrows indicate the direction of sensitivity shift between NADPH-dependent and -independent metabolite mixtures, with accompanying fold change values. The concentrations are given as nominal concentrations of the parent compound. Abbreviations: n.s., not significant. TEXT PRINTED IN THE PICTURE: (C) Bromethalin: x30 | (D) Chlorfenapyr: x15
The MINC assay was performed as previously described. Briefly, 96-well plates were prepared by inserting a central 2 mm diameter stopper (Platypus Technologies, Madison, WI, USA) into pre-coated wells with a composite poly-L-ornithine (PLO; 10 µg/mL), fibronectin (1 µg/mL), and laminin (1 µg/mL) matrix. Cryopreserved human induced pluripotent stem cell (hiPSC)-derived neural crest-like cells were thawed and seeded at a density of 95,000 cells/cm^2 around the stopper to create a defined, cell-free circular area. The cells were cultured in N2-S medium supplemented with […] of the cytokines EGF and FGF. After 24 h, the stoppers were removed and the medium refreshed to initiate cell migration into the cell-free centre (defined as the day of migration, DoM 0). On DoM 1, the cells were exposed to test compounds by the addition of a 5× concentrated toxicant solution. After a further 24 h (DoM 2), cell migration and viability were assessed. The cells were stained with 0.5 µM calcein-AM and 1 µg/mL Hoechst 33342 (both from Sigma-Aldrich, Steinheim, Germany). High content imaging was performed, and data were analysed using the RingAssay V1 software (http://invitrotox.uni-konstanz.de/, accessed on 3 February 2025).
In the first step, matched technical replicates were averaged. […] For visualisation, GraphPad Prism 9 was used.
The supernatant was used further.

In another experiment the test system is LUHMES cells. The note with it: rat liver S9 50 µg/mL in testing module, 2 h preincubation, RFP-LUHMES; toxicity increased with NADPH. As for the experimental part: Figure 4 A strategy to incorporate metabolic competence into in vitro DNT testing methods. (A) A schematic overview of a sequential metabolism and testing approach. The “metabolisation module” uses hepatic post-mitochondrial fractions (S9) to generate metabolite mixtures in the presence or absence of cofactors (NADPH, glucose-6-phosphate, MgCl2). These metabolite mixtures are tested in the “testing module” in a concentration-dependent manner after serial pre-dilutions. Metabolite mixtures are added as a fraction of 10% to the media volume of the “testing module”. The testing module may be a cell-based neurotoxicity (NT) or developmental neurotoxicity (DNT) assay, such as the neurite outgrowth or migration assay. Here, the Mito-Met neurite outgrowth assay, as in Figure 1, was used. […] The curves represent data from three independent experiments and were fitted using a four-parameter Hill function. […] The data represent three independent experiments. The indicated concentrations are “testing module” concentrations.
To further evaluate our modular pre-activation strategy for identifying metabolite-mediated hazard, we tested a broader panel of compounds. For each compound (parent), a single concentration was used in the metabolisation module. The metabolite mixtures were generated in the absence or presence of NADPH. These metabolite mixtures were serially diluted and assessed using the MitoMet neurite outgrowth assay. As a measure of potency, EC25 values were determined, and potency ratios were calculated to compare the effects of NADPH-dependent versus NADPH-independent metabolism.
Figure 5 The effect of NADPH-dependent hepatic metabolism on the DNT of selected compounds. (A) A strategy scheme to assess the effect of metabolic enzymes on the outcome of cell-based DNT assays. Metabolite mixtures are generated using the NADPH-(in)dependent metabolic activity of S9. NADPH-independent metabolism is shown in green (light grey). NADPH-dependent metabolism is shown in red (dark grey). […] (B–F) The concentration-dependent effect of metabolite mixtures on neurite outgrowth was measured as in Figure 1, with the following modifications: red-fluorescent-protein (RFP)-expressing LUHMES cells were used. As the assay endpoint, the RFP fluorescence of neurites was used instead of calcein staining. The curves represent data from three independent experiments and were fitted using a four-parameter Hill function. From this, an EC25 was calculated. Bold numbers indicate the fold changes between EC25 values of the NADPH-(in)dependent metabolite mixtures, with the direction of the arrow reflecting the shift in sensitivity. Note that the x-axes indicate nominal concentrations of parent compounds. […] Similar images were used for neurite quantification. The right image (red frame) of the pairs was obtained with NADPH. The black arrowheads above the curves indicate the experimental conditions used to record images. The scale bar in orange corresponds to 50 µm.
The MitoMet neurite outgrowth assay was performed as previously described. In brief, all cell culture dishes and flasks were pre-coated with 50 μg/mL poly-l-ornithine (PLO) and 1 μg/mL fibronectin. Proliferating LUHMES cells were maintained in AdvDMEM/F12 containing L-glutamine (2 mM), N2 supplement (1x), and FGF (40 ng/mL). For pre-differentiation, the cells were replated at a density of 46,000 cells/cm^2 one day prior to the induction of differentiation (defined as the day of differentiation, Day −1). Differentiation was initiated by exchanging the culture medium for AdvDMEM/F12 supplemented with L-glutamine (2 mM), N2 supplement (1x), dibutyryl-cAMP (1 mM), tetracycline (1 µg/mL), and GDNF (2 ng/mL). After two days of differentiation (Day 2), the cells were replated (100,000 cells/cm^2) into 96-well plates.

For the compound `CN(c1c(Br)cc(Br)cc1Br)c1c([N+](=O)[O-])cc([N+](=O)[O-])cc1C(F)(F)F` [Bromethalin], in experiment [1], the “EC25 migration (+NADPH)” value worked out at 26 nM; the “EC25 migration (−NADPH)” value came out at 790 nM; the “fold change of potency (EC25) between NADPH-independent and -dependent metabolite mixtures” value was “about 30 fold”. Moreover, the “fold change between EC25 values of NADPH-independent and NADPH-dependent metabolite mixtures (toxification)” value in the experiment with LUHMES cells was 8 x.
As for `CCOCn1c(-c2ccc(Cl)cc2)c(C#N)c(Br)c1C(F)(F)F` [Chlorfenapyr], in experiment [1], the “EC25 migration (+NADPH)” value was determined as 600 nM; the “EC25 migration (−NADPH)” value was determined as 9000 nM; the “fold change of potency (EC25) between NADPH-independent and -dependent metabolite mixtures” value is reported as 15 fold. Besides, the “fold change between EC25 values of NADPH-independent and NADPH-dependent metabolite mixtures (toxification)” value in the experiment with LUHMES cells is reported as greater than 6 x.
